From patent US10829796B2, “Bacteria identification and antimicrobial susceptibility test” (priority 2015, dated 2020)

How the values were obtained:
Format in all cases: cell-based
[1] = tested on: Streptococcus uberis; experiment: Group D Streptococci identification, esculin/ferric citrate in TSB (blackening = growth), bacteria in milk; conditions: TSB containing 0.5% esculin and 0.25% ferric citrate + 80 uL spiked milk; 100 ug/ml aztreonam and/or 0.5 mg/mL phenol red
Protocol: By way of illustration, the same experiment was conducted as above, only this time using clinical milk samples obtained from a bovine animal suspect of being infected with mastitis.
However, Applicant has discovered that increased amounts of esculin and ferric citrate may be used in milk derived clinical samples. For example, at concentrations of at least 2% esculin and 1% ferric citrate, the growth of Streptococcus uberis is not inhibited.
Note, in the experiments above, the clinical sample tested was milk obtained from a bovine animal suspected of being infected by mastitis. If a non-milk clinical sample were to be tested, then inclusion of a stabilizing agent (e.g. milk in the form of a liquid or powder) would be required in order to suppress the growth inhibitory effect of esculin and ferric citrate at the higher concentrations used according to this invention.
Applicant further discovered that TSB containing 0.5% esculin and 0.25% ferric citrate and 80 uL of spiked Streptococcus uberis milk sample which also contained 100 ug/ml aztreonam concentration (antibiotic which has activity against many gram-bacteria such as E. coli) and/or in combination with 0.5 mg/mL phenol red led to easy detectable colour changes. No inhibition of Streptococcus uberis due to phenol red or aztreonam was detected.

[2] = tested on: Staphylococcus aureus; experiment: Antibiotic susceptibility testing (colour of media), spiked milk; conditions: for Colour of media: Tryptic Soy (70 ul composition 2c), bacteria sample 5c; for Colour of media in each well: T~16 h, 37° C., plate configuration #3
[3] = tested on: Streptococcus uberis; experiment: as above; conditions: for Colour of media in each well: T~16 h, 37° C., bacteria samples 6d, plate configuration #3
[4] = tested on: Escherichia coli; experiment: as above; conditions: for Colour of media in each well: 37° C., plate configuration #3
[5] = bacteria sample 6d 4 μl + Composition 27 1 μl + drug solution (100 μg Aztreonam per ml water) 0.5 μl
[6] = bacteria sample 6d 8 μl + Composition 27 2 μl + drug solution (100 μg Aztreonam per ml water) 1 μl
[7] = bacteria sample 6d 20 μl + Composition 27 5 μl + drug solution (100 μg Aztreonam per ml water) 2.5 μl
[8] = bacteria sample 6d 40 μl + Composition 27 10 μl + drug solution (100 μg Aztreonam per ml water) 5 μl
[9] = bacteria sample 6d 80 μl + Composition 27 20 μl + drug solution (100 μg Aztreonam per ml water) 10 μl
[10] = bacteria sample 6d 160 μl + Composition 27 40 μl + drug solution (100 μg Aztreonam per ml water) 20 μl
[11] = bacteria sample 4d 4 μl + Composition 27 1 μl + drug solution (100 μg Aztreonam per ml water) 0.5 μl
[12] = bacteria sample 4d 8 μl + Composition 27 2 μl + drug solution (100 μg Aztreonam per ml water) 1 μl
[13] = bacteria sample 4d 20 μl + Composition 27 5 μl + drug solution (100 μg Aztreonam per ml water) 2.5 μl
[14] = bacteria sample 4d 40 μl + Composition 27 10 μl + drug solution (100 μg Aztreonam per ml water) 5 μl
[15] = bacteria sample 4d 80 μl + Composition 27 20 μl + drug solution (100 μg Aztreonam per ml water) 10 μl
[16] = bacteria sample 4d 160 μl + Composition 27 40 μl + drug solution (100 μg Aztreonam per ml water) 20 μl

C[C@H]1[C@H](NC(=O)/C(=N\OC(C)(C)C(=O)O)c2csc(N)n2)C(=O)N1S(=O)(=O)O [aztreonam]
Red: Colour of media prior incubation [3, 5] | Colour of media prior incubation [3, 6] | Colour of media prior incubation [3, 7] | Colour of media prior incubation [3, 8] | Colour of media prior incubation [3, 9] | Colour of media prior incubation [3, 10] | Colour of media after 24 hours incubation at 37° C. [4, 11] | Colour of media prior incubation [4, 11] | Colour of media after 24 hours incubation at 37° C. [4, 12] | Colour of media prior incubation [4, 12] | Colour of media after 24 hours incubation at 37° C. [4, 13] | Colour of media prior incubation [4, 13] | Colour of media after 24 hours incubation at 37° C. [4, 14] | Colour of media prior incubation [4, 14] | Colour of media after 24 hours incubation at 37° C. [4, 15] | Colour of media prior incubation [4, 15] | Colour of media after 24 hours incubation at 37° C. [4, 16] | Colour of media prior incubation [4, 16]
No inhibition: Inhibition of Streptococcus uberis [1]
Black: Colour of media after 24 hours incubation at 37° C. [3, 5] | Colour of media after 24 hours incubation at 37° C. [3, 6] | Colour of media after 24 hours incubation at 37° C. [3, 7] | Colour of media after 24 hours incubation at 37° C. [3, 8] | Colour of media after 24 hours incubation at 37° C. [3, 9] | Colour of media after 24 hours incubation at 37° C. [3, 10]
red: Colour of media ([2]; T = 0 hours (pre incubation), drug 0.01 μg/ml) | Colour of media ([2]; T = 0 hours (pre incubation), drug 0.05 μg/ml) | Colour of media ([2]; T = 0 hours (pre incubation), drug 0.1 μg/ml) | Colour of media ([2]; T = 0 hours (pre incubation), drug 0.5 μg/ml) | Colour of media ([2]; T = 0 hours (pre incubation), drug 1 μg/ml) | Colour of media ([2]; T = 0 hours (pre incubation), drug 5 μg/ml) | Colour of media ([2]; T = 0 hours (pre incubation), drug 10 μg/ml) | Colour of media ([2]; T = 0 hours (pre incubation), drug 50 μg/ml) | Colour of media ([2]; T = 0 hours (pre incubation), drug 100 μg/ml) | Colour of media ([2]; T = 0 hours (pre incubation), drug 500 μg/ml) | Colour of media in each well ([2]; bacteria samples 5c, Aztreonam 0.001 μg/ml) | Colour of media in each well ([4]; t~16 h, bacteria samples 4e, Aztreonam 1 μg/ml) | Colour of media in each well ([4]; t~16 h, bacteria samples 4e, Aztreonam 10 μg/ml)
yellow: Colour of media ([2]; T = 15-24 h at 35° C., drug 0.01 μg/ml) | Colour of media ([2]; T = 15-24 h at 35° C., drug 0.05 μg/ml) | Colour of media ([2]; T = 15-24 h at 35° C., drug 0.1 μg/ml) | Colour of media ([2]; T = 15-24 h at 35° C., drug 0.5 μg/ml) | Colour of media ([2]; T = 15-24 h at 35° C., drug 1 μg/ml) | Colour of media ([2]; T = 15-24 h at 35° C., drug 5 μg/ml) | Colour of media ([2]; T = 15-24 h at 35° C., drug 10 μg/ml) | Colour of media ([2]; T = 15-24 h at 35° C., drug 50 μg/ml) | Colour of media ([2]; T = 15-24 h at 35° C., drug 100 μg/ml) | Colour of media ([2]; T = 15-24 h at 35° C., drug 500 μg/ml) | Colour of media in each well ([2]; bacteria samples 5c, Aztreonam 0.01 μg/ml) | Colour of media in each well ([2]; bacteria samples 5c, Aztreonam 0.1 μg/ml) | Colour of media in each well ([2]; bacteria samples 5c, Aztreonam 1 μg/ml) | Colour of media in each well ([2]; bacteria samples 5c, Aztreonam 10 μg/ml) | Colour of media in each well ([2]; bacteria samples 5e, Aztreonam 0.001 μg/ml) | Colour of media in each well ([2]; bacteria samples 5e, Aztreonam 0.01 μg/ml) | Colour of media in each well ([2]; bacteria samples 5e, Aztreonam 0.1 μg/ml) | Colour of media in each well ([2]; bacteria samples 5e, Aztreonam 1 μg/ml) | Colour of media in each well ([2]; bacteria samples 5e, Aztreonam 10 μg/ml) | Colour of media in each well ([3]; Aztreonam 0.001 μg/ml) | Colour of media in each well ([3]; Aztreonam 0.01 μg/ml) | Colour of media in each well ([3]; Aztreonam 0.1 μg/ml) | Colour of media in each well ([3]; Aztreonam 1 μg/ml) | Colour of media in each well ([3]; Aztreonam 10 μg/ml) | Colour of media in each well ([4]; T~16 h, bacteria samples 4c, Aztreonam 0.001 μg/ml) | Colour of media in each well ([4]; T~16 h, bacteria samples 4c, Aztreonam 0.01 μg/ml) | Colour of media in each well ([4]; T~16 h, bacteria samples 4c, Aztreonam 0.1 μg/ml) | Colour of media in each well ([4]; T~16 h, bacteria samples 4c, Aztreonam 1 μg/ml) | Colour of media in each well ([4]; T~16 h, bacteria samples 4c, Aztreonam 10 μg/ml) | Colour of media in each well ([4]; t~16 h, bacteria samples 4e, Aztreonam 0.001 μg/ml) | Colour of media in each well ([4]; t~16 h, bacteria samples 4e, Aztreonam 0.01 μg/ml) | Colour of media in each well ([4]; t~16 h, bacteria samples 4e, Aztreonam 0.1 μg/ml)
